Source: US20250339409A1, “USES OF PAN BET INHIBITORS” (VYNE THERAPEUTICS INC., priority 2021, published 2025)

System: IL-1β, IL-6, IL-8, IL-17, IL-18, IL-23, IL-36 and TNF-α
Assay: Serum pro-inflammatory cytokine assays (Luminex, ELISA) in the imiquimod model
Assay type: in vivo, female Balb/c mice
Conditions: imiquimod-induced mice
Method: Immediately after the TEWL measurements on D14, mice are maintained under gas anesthesia and blood is taken from each mouse by intracardiac puncture. Blood samples are placed at +4° C. for 20 to 30 minutes before being centrifuged at 3000 rpm and +4° C. for 20 minutes. Serum is collected, frozen at −20° C. and then stored at −80° C. awaiting serum biomarkers assays (cytokines).
Assays of the 8 pro-inflammatory cytokines IL-1β, IL-6, IL-8, IL-17, IL-18, IL-23, IL-36 and TNF-α associated with psoriasis and other inflammatory diseases is performed on the isolated and frozen serum samples from blood collected at the end of the experiment on mice of the 7 experimental groups 1 to 7.
The Luminex® technique using magnetic beads technology and ProcartaPlex® immunoassay kit from the Invitrogen division of Thermofisher Scientific is used to perform the assays of the 7 multiplexed cytokines IL-1β, IL-6, IL-8, IL-17, IL-18, IL-23, and TNF-α. Analyte-specific antibodies for the 7 cytokines is pre-coated onto color-coded magnetic microparticles. Microparticles, standards and serum samples (non-diluted as recommended in the instruction manual) is pipetted into wells and the immobilized antibodies bind the analytes of interest. After washing away any unbound substances, a biotinylated antibody cocktail specific to the analytes of interest is added to each well. Following a wash to remove any unbound biotinylated antibody, streptavidin-phycoerythrin conjugate (Streptavidin-PE), which binds to the biotinylated antibody, is added to each well. A final wash removes unbound Streptavidin-PE and the microparticles is resuspended in buffer and read using a Bio-Rad Bio-Plex 200 Analyzer. A magnet in the analyzer captures and holds the superparamagnetic microparticles in a monolayer. Two spectrally distinct Light Emitting Diodes (LED) illuminate the microparticles. One LED identifies the analyte detected and the second LED determines the magnitude of the PE-derived signal, which is in direct proportion to the amount of the analyte bound. Each well is imaged with a Charged Coupled Device (CCD) camera. A representative standard curve from the 7 cytokines is diluted in a serial fourfold steps in specific standard buffer. Each standard, control and serum sample is analyzed in duplicate.
Quantitative sandwich Enzyme-Linked ImmunoSorbent Assay (ELISA) using mouse IL-36 immunoassay kit from the Invitrogen division of Thermofisher Scientific is used to perform the assay. A purified anti-mouse polyclonal antibody against the specific antigen IL-36 pre-coated onto a microplate is used. Standard, control, and serum samples, as recommended in the instruction manual, are pipetted into the wells and any mouse specific antigen present is bound by the immobilized antibody. After washing away any unbound substances, a biotin-conjugated anti-mouse IL-36 antibody is incubated in each well. Then, after washing, streptavidin-Horseradish Peroxidase (HRP) complex is added to the wells, allowing non-covalent biological interaction with biotin. Following several washes to remove any unbound complex, a TetraMethylBenzidine (TMB) substrate solution is added to the wells. The enzyme reaction yields a blue product that turns yellow when the stop solution is added. The intensity of the colour is measured at 450 nm and 570 nm using a microplate reader. The values of 570 nm are subtracted from those of 450 nm and data is in proportion to the amount of […] bound in the initial step. The serum samples values are then read off the standard curves. A representative standard curve from IL-36 is diluted in a serial two folds step in assay buffer. Each standard, control and serum sample is analyzed in duplicate.

`Cn1cc(-c2cccc(O)c2Oc2ccccc2)c2cc[nH]c2c1=O` [BETi1] was tested, and the “Inflammatory Biomarkers, Mean score values, IL-1β” value (“Inflammatory Biomarkers … IL-1β” for short) (D14, listed as BETi1 0.001%) was 49.00 pg/mL, the “Inflammatory Biomarkers, Mean score values, IL-6” value (“Inflammatory Biomarkers … IL-6” for short) (D14, listed as BETi1 0.001%) was 123.25 pg/mL and the “Inflammatory Biomarkers, Mean score values, IL-8” value (“Inflammatory Biomarkers … IL-8” below) (D14, listed as BETi1 0.001%) was 41.82 pg/mL. The “Inflammatory Biomarkers, Mean score values, IL-17” value (shortened to “Inflammatory Biomarkers … IL-17”) (D14, listed as BETi1 0.001%) was 74.77 pg/mL, the “Inflammatory Biomarkers, Mean score values, IL-18” value (from here on “Inflammatory Biomarkers … IL-18”) (D14, listed as BETi1 0.001%) was 241.77 pg/mL and the “Inflammatory Biomarkers, Mean score values, IL-23” value (“Inflammatory Biomarkers … IL-23” for short) (D14, listed as BETi1 0.001%) was 51.02 pg/mL. The “Inflammatory Biomarkers, Mean score values, IL-36” value (“Inflammatory Biomarkers … IL-36” for short) (D14, listed as BETi1 0.001%) was 65.63 pg/mL, the “Inflammatory Biomarkers, Mean score values, TNF-α” value (“Inflammatory Biomarkers … TNF-α” for short) (D14, listed as BETi1 0.001%) was 36.20 pg/mL and the “Inflammatory Biomarkers … IL-1β” value (D14, listed as BETi1 0.1%) was 24.31 pg/mL. For the same compound, the “Inflammatory Biomarkers … IL-6” value (D14, listed as BETi1 0.1%) was 56.29 pg/mL, the “Inflammatory Biomarkers … IL-8” value (D14, listed as BETi1 0.1%) was 21.40 pg/mL and the “Inflammatory Biomarkers … IL-17” value (D14, listed as BETi1 0.1%) was 25.08 pg/mL. The “Inflammatory Biomarkers … IL-18” value (D14, listed as BETi1 0.1%) was 138.90 pg/mL, the “Inflammatory Biomarkers … IL-23” value (D14, listed as BETi1 0.1%) was 20.66 pg/mL and the “Inflammatory Biomarkers … IL-36” value (D14, listed as BETi1 0.1%) was 26.91 pg/mL. For the same compound, the “Inflammatory Biomarkers … TNF-α” value (D14, listed as BETi1 0.1%) was 18.27 pg/mL, the “Inflammatory Biomarkers … IL-1β” value (D14, listed as BETi1 1.0%) was 39.46 pg/mL and the “Inflammatory Biomarkers … IL-6” value (D14, listed as BETi1 1.0%) was 96.09 pg/mL. For the same compound, the “Inflammatory Biomarkers … IL-8” value (D14, listed as BETi1 1.0%) was 23.50 pg/mL, the “Inflammatory Biomarkers … IL-17” value (D14, listed as BETi1 1.0%) was 54.13 pg/mL and the “Inflammatory Biomarkers … IL-18” value (D14, listed as BETi1 1.0%) was 202.85 pg/mL. The “Inflammatory Biomarkers … IL-23” value (D14, listed as BETi1 1.0%) was 33.19 pg/mL, the “Inflammatory Biomarkers … IL-36” value (D14, listed as BETi1 1.0%) was 52.58 pg/mL and the “Inflammatory Biomarkers … TNF-α” value (D14, listed as BETi1 1.0%) was 25.05 pg/mL. For the same compound, the “Inflammatory Biomarkers … IL-1β” value (D14, listed as BETi10.01%) was 32.62 pg/mL, the “Inflammatory Biomarkers … IL-6” value (D14, listed as BETi10.01%) was 74.31 pg/mL and the “Inflammatory Biomarkers … IL-8” value (D14, listed as BETi10.01%) was 30.82 pg/mL. For the same compound, the “Inflammatory Biomarkers … IL-17” value (D14, listed as BETi10.01%) was 33.44 pg/mL, the “Inflammatory Biomarkers … IL-18” value (D14, listed as BETi10.01%) was 146.86 pg/mL and the “Inflammatory Biomarkers … IL-23” value (D14, listed as BETi10.01%) was 30.04 pg/mL. For the same compound, the “Inflammatory Biomarkers … IL-36” value (D14, listed as BETi10.01%) was 30.38 pg/mL and the “Inflammatory Biomarkers … TNF-α” value (D14, listed as BETi10.01%) was 22.16 pg/mL.
